Experimental data: BindingDB's records for doi:10.1016/s0960-894x(02)00471-7 (Universita' Di Firenze, 2002)

Target: T1, Substance-K receptor (Homo sapiens, UniProt P21452)
T1 sequence (P21452 whole entry): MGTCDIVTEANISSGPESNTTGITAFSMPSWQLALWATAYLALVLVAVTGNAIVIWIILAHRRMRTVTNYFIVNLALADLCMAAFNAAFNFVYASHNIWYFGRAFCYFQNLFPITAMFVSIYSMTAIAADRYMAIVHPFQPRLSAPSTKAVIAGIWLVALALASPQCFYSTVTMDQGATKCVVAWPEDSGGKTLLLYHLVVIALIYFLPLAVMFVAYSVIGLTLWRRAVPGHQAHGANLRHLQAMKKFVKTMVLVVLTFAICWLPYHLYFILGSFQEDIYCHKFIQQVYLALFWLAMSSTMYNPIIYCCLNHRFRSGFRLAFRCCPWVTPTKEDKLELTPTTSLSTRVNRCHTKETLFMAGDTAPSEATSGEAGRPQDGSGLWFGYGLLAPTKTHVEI
Assay: ChEBML_209037
Source text: Displacement of [125I]NKA from human Tachykinin receptor 2 expressed in CHO cells

CCOC(=O)C1C(C)OC2OC(COCc3ccccc3)C(OCc3ccccc3)C(=O)C2[S+]1[O-] (stereo unspecified) [7-Benzyloxy-6-benzyloxymethyl-8-hydroxy-3-methyl-1-oxo-6,7,8,8a-tetrahydro-1H,4aH-4,5-dioxa-1lambda*4*-thia-naphthalene-2-carboxylic acid ethyl ester]
Ki: 790 nM
